Laboratory results as given in patent US10959974B2, “Ingenol compounds and use thereof in anti-HIV latency treatment” (priority 2015, dated 2021).
Converted amounts (≈) assume the structure as drawn. Like-named read-outs stand apart in the source and are kept apart here.

Experiments:
[1] = system: latent HIV in J-Lat-A10.6 or C11 cells; assay: Activation of HIV expression in latent cells, flow cytometry of green fluorescent cells (cell line not given); type: cell-based, human; conditions: treated 48 h
Procedure: (§1) The HIV latent cell model of the present invention comprises: a human T cell 10.6 clone strain carrying a green fluorescent protein gene (J-Lat-A10.6), which is provided by the National Institute of Health Research AIDS Reference Reagent Planning Department, established by Dr. Eric Verdin of the University of California.
(§2) The cells are small and the spherical cells are cultured in suspension. […]
(§3) J-Lat-A10.6 or C11 cells were seeded in 96-well plates at 2×10E4 cells per well, and 100 μl of 1640 medium (Gibco) containing 10% FBS (Gibco) was added to each well. After the cells were treated with the compounds in Examples 1-7 for 48 h, the green fluorescence expression of the cells was observed under a fluorescence microscope, the cells were collected for flow cytometry detection, and the proportion of fluorescent cells was analyzed.
(§4) J-Lat-A10.6 or C11 cells were seeded in 96-well plates at 2×10E4 cells per well, and 100 μl of 1640 medium (Gibco) containing 10% FBS (Gibco) was added to each well. After treatment with different concentrations of compounds (such as the compounds in Examples 1-7) and Prostratin for 48 h, the cells were collected for flow cytometry detection and the proportion of fluorescent cells was analyzed.

[2] = system: latent HIV in J-Lat-A10.6 cells; assay: Activation of latent HIV in J-Lat-A10.6 cells, GFP fluorescence / flow cytometry; type: cell-based, human; conditions: 48 h
Procedure: as §1, §2, §3, §4

[3] = system: resting CD4+ T cells isolated from the peripheral blood of AIDS patients; assay: Activation of latent HIV in peripheral blood resting CD4+ T cells of AIDS patients, real-time PCR of HIV-1 mRNA; type: cell-based, human; conditions: 0.005 μM, 18 h; compared with control and 5 μg/ml PHA treated cells
Procedure: The resting CD4+ T cells isolated from the peripheral blood of 5 AIDS patients were treated with 5 μg/ml PHA (phytohemagglutinin) (positive control) and 0.005 μM compound 16A for 18 h, and then HIV-1 mRNA was extracted from resting CD4+ T cells and the medium, real-time PCR was used to detect the change of HIV-1 mRNA expression level in resting CD4+ T cells and medium, respectively.

latent HIV in C11 cells = assay: Activation of latent HIV in C11 cells, GFP fluorescence / flow cytometry; type: cell-based; conditions: for EC50: read-out: EC50 of activation of latent HIV-1
Procedure: The cells are small and the spherical cells are cultured in suspension. Human T cell Jurkat […] cells are transfected by the retroviral vector carrying the green fluorescent protein gene HIV-R7/E-/GFP and sorted (Jordan A, Bisgrove D, Verdin E. HIV reproducibly establishes a latent infection after acute infection EMBO J 22:1868-1877, 2003); another established HIV latent screening model C11 clone is obtained by the twice of the sorting and activation on HIV lentivirus-infected T cells. (Chinese patent: 200810038851. X).
as §3, §4

[4] = system: cells in the known HIV-infected latent reservoir; assay: Treatment of cells of the HIV-infected latent reservoir with compound, then antiretroviral drugs; type: cell-based; conditions: compound treatment followed by antiretroviral drugs, versus untreated viral latent reservoir

| SMILES | EC50 ([1]; flow cytometry, J-Lat-A10.6 or C11 cells (not specified for Table 1)) [ng/mL] | activation rate ([1]; proportion of fluorescent cells, J-Lat-A10.6 or C11 cells (not specified), untreated control 2%) [%] | proportion of green fluorescent positive cells ([2]; 10 nM, background about 1-2%) [%] | intracellular activated HIV-mRNA [3] | proportion of green fluorescent positive cells (latent HIV in C11 cells; 10 nM, 48 h, C11 cells) [%] | EC50 (latent HIV in C11 cells; C11 cells, 48 h, flow cytometry) [nM] | number of viral latent reservoir [4] | EC50 ([2]; Homo sapiens, flow cytometry, read-out: EC50 of activation of latent HIV-1) [nM] | EC50 (latent HIV in C11 cells; Human immunodeficiency virus 1, 48 h) [nM] |
| --- | --- | --- | --- | --- | --- | --- | --- | --- | --- |
| CCCCCCCCCCCC(=O)O[C@@]12C[C@@H](C)[C@]34C=C(C)[C@H](OC(=O)C(C)C(C)C)[C@@]3(O)[C@H](O)C(CO)=C[C@H](C4=O)[C@@H]1C2(C)C (stereo partly drawn) [Example 1, 3-O-(2,3-dimethylbutanoyl)-13-O-dodecanoyl ingenol] | 2.6 (≈ 4.03 nM) | 93 | 90 | significantly higher | ~80 | 3.53 | significantly lower |  |  |
| CC(=O)O[C@@]12C[C@@H](C)[C@@]3(O)[C@@H](C=C(CO)C[C@]4(O)C(=O)C(C)=C[C@@H]34)[C@@H]1C2(C)C [Prostratin, reference compound] |  |  |  |  |  |  |  | 860 | 760 |
